One series addresses T1, PDE1B (Homo sapiens, UniProt Q01064).
T1 construct: recombinant full length human PDEl A and PDE1B; made in house; host or cells: HEK or SF9 cells
The series can be described thus: IMAP phosphodiesterase assay, PDE1B. The following applies: PDE Target PDE1B. The class given is biochemical. The text has this: Measurement of PDEIB Inhibition In Vitro Using IMAP Phosphodiesterase Assay Kit
Phosphodiesterase I B (PDEIB) is a calcium/calmodulin dependent phosphodiesterase enzyme that converts cyclic guanosine monophosphate (cGMP) to 5′-guanosine monophosphate (5′-GMP). PDEIB can also convert a modified cGMP substrate, such as the fluorescent molecule cGMP-fluorescein, to the corresponding GMP-fluorescein. The generation of GMP-fluorescein from cGMP-fluorescein can be quantitated, using, for example, the IMAP (Molecular Devices, Sunnyvale, CA) immobilized-metal affinity particle reagent.
Briefly, the IMAP reagent binds with high affinity to the free 5′-phosphate that is found in GMP-fluorescein and not in cGMP-fluorescein. The resulting GMP-fluorescein-IMAP complex is large relative to cGMP-fluorescein. Small fluorophores that are bound up in a large, slowly tumbling, complex can be distinguished from unbound fluorophores, because the photons emitted as they fluoresce retain the same polarity as the photons used to excite the fluorescence.
In the phosphodiesterase assay, cGMP-fluorescein, which cannot be bound to IMAP, and therefore retains little fluorescence polarization, is converted to GMP-fluorescein, which, when bound to IMAP, yields a large increase in fluorescence polarization (Amp). Inhibition of phosphodiesterase, therefore, is detected as a decrease in Amp.
Materials: All chemicals are available from Sigma-Aldrich (St. Louis, MO) except for IMAP reagents (reaction buffer, binding buffer, FL-GMP and IMAP beads), which are available from Molecular Devices (Sunnyvale, CA). […]
The FL-GMP conversion reaction is initiated by combining 4 parts enzyme and inhibitor mix with 1 part substrate solution (0.225 μM) in a 384-well microtiter plate. […] The plate is incubated at room temperature for 1 hour to allow IMAP binding to proceed to completion, and then placed in an Envision multimode microplate reader (PerkinElmer, Shelton, CT) to measure the fluorescence polarization (Amp).
A decrease in GMP concentration, measured as decreased Amp, is indicative of inhibition of PDE activity.

The target of a further series is T2, PDE1A (Homo sapiens, UniProt P54750).
T2 construct: recombinant full length human PDEl A and PDE1B; made in house; host or cells: HEK or SF9 cells
The series can be described thus: IMAP phosphodiesterase assay, PDE1A. The class given is biochemical. Particulars: PDE Target PDE1A.

For a further series, the target named is hPDE4A1A (Homo sapiens, UniProt P27815). The series can be described thus: PDE selectivity assay, hPDE4A1A. The format is biochemical. The following applies: PDE Target hPDE4A1A.
Sequence of hPDE4A1A (P27815 1-647 isoform P27815-4): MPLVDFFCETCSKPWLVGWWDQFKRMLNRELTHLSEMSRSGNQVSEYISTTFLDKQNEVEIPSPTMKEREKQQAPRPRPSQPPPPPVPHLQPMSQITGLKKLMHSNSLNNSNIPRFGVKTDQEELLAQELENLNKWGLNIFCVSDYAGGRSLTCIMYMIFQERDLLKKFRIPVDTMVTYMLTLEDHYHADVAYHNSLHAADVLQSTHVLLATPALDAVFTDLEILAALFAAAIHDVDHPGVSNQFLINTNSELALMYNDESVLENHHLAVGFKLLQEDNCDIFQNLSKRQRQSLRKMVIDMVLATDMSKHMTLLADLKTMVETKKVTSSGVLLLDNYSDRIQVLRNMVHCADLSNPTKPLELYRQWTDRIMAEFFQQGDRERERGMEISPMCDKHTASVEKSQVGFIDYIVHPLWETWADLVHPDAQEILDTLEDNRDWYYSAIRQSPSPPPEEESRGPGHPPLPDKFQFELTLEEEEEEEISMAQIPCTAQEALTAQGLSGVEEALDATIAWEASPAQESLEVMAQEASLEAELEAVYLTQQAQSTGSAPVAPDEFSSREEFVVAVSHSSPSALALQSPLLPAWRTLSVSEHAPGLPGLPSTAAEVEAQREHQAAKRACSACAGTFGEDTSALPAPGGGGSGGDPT
In a further series the target is hPDE9A (Homo sapiens, UniProt O76083). Nature of the series: PDE selectivity assay, hPDE9A. The class given is biochemical. The following applies: PDE Target hPDE9A.
Sequence of hPDE9A (O76083 whole entry): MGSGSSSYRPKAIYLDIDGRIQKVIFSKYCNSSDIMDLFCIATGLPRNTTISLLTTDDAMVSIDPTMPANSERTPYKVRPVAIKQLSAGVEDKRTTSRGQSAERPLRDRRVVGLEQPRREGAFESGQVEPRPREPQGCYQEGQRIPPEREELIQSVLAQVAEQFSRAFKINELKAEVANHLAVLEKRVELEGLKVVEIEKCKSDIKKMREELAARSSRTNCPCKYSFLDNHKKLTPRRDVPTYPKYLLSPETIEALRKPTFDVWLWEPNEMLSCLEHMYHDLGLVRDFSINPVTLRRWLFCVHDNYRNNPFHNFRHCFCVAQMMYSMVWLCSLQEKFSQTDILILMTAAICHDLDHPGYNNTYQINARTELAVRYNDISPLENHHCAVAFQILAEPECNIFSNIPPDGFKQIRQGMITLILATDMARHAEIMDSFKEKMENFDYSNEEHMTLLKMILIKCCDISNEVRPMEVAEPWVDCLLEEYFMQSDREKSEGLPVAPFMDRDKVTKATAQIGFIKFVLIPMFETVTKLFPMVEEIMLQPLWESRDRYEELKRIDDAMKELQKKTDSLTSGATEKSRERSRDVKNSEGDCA
The target of a further series is hPDE11 (Homo sapiens, UniProt Q9HCR9). Nature of the series: PDE selectivity assay, hPDE11. Particulars: PDE Target hPDE11. The class given is biochemical.
Sequence of hPDE11 (Q9HCR9 whole entry): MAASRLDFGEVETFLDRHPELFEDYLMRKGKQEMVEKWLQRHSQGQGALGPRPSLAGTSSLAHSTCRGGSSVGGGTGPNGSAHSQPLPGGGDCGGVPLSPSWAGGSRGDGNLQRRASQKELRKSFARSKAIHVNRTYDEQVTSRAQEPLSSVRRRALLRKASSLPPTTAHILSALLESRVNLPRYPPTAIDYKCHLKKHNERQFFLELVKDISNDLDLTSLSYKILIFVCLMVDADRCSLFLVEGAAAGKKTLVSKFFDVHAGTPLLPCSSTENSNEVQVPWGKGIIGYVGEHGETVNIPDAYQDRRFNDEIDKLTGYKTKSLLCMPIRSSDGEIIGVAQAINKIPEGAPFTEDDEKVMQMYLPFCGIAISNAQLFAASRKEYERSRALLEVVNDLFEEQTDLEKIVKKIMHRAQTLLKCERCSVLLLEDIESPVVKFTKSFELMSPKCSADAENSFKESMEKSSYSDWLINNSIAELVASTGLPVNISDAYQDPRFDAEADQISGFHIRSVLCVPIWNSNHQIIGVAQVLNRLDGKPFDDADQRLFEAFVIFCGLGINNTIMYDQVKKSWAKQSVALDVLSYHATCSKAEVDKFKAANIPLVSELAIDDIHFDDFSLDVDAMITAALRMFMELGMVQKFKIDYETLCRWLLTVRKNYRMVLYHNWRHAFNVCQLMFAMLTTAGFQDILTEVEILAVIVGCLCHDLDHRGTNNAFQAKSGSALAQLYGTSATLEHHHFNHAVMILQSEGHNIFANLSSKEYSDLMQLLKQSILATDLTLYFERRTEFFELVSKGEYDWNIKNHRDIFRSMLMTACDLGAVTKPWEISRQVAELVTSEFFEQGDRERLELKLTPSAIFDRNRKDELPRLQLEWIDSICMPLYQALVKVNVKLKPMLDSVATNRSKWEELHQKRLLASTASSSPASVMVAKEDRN
In another series the target is hPDE10A (Homo sapiens, UniProt Q9Y233). The series can be described thus: PDE selectivity assay, hPDE10A. The format is biochemical. Particulars: PDE Target hPDE10A.
Sequence of hPDE10A (Q9Y233 whole entry): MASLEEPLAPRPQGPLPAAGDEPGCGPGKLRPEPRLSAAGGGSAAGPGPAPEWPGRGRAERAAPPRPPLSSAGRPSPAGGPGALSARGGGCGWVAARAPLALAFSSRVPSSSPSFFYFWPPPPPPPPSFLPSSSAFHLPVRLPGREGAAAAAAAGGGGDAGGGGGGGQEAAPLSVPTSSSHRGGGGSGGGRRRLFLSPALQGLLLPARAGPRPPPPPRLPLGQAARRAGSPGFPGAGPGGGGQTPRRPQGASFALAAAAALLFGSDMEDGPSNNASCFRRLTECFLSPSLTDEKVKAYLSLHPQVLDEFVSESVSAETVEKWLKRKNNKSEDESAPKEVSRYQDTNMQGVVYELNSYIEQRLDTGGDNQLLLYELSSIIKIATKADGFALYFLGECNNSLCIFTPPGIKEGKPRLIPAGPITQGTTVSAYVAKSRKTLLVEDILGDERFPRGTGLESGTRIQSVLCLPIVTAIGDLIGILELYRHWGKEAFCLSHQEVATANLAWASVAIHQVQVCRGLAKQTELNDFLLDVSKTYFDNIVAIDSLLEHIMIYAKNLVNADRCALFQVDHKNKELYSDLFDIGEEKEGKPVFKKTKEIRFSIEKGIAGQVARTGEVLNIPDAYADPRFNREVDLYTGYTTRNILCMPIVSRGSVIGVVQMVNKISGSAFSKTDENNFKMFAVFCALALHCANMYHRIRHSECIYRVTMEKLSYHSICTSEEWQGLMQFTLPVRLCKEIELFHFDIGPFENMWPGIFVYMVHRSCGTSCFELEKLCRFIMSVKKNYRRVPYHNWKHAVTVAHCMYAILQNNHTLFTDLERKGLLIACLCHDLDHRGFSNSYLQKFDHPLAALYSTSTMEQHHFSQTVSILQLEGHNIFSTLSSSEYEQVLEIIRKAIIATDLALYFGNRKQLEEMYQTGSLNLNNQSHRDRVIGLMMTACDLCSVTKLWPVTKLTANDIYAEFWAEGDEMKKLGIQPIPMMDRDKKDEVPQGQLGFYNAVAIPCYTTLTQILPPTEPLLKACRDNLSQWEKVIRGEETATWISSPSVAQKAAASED
Another series concerns the target T3, bovine PDE6 (Bos taurus, UniProt P11541+P23439).
T3 sequence (P11541 2-856 limits assumed): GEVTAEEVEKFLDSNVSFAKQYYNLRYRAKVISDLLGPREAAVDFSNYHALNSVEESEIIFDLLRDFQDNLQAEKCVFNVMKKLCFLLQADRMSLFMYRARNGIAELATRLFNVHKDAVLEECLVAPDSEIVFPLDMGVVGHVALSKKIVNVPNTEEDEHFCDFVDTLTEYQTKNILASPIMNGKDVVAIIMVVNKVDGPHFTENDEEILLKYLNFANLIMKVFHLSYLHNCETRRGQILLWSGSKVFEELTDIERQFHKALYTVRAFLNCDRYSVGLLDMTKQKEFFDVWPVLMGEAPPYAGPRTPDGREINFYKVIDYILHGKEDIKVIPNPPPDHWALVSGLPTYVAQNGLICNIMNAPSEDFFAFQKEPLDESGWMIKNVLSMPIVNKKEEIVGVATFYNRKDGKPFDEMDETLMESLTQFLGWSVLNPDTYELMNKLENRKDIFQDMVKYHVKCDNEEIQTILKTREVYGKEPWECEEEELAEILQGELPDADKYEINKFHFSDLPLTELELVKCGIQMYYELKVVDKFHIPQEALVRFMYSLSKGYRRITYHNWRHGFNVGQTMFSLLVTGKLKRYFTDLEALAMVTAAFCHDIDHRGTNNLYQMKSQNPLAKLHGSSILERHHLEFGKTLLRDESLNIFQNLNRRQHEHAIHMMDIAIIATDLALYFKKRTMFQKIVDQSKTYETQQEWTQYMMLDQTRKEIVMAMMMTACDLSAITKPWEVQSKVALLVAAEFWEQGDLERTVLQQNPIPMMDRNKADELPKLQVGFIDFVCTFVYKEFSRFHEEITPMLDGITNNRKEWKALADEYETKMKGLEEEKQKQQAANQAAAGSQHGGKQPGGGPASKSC
T3 sequence (P23439 2-850 limits assumed): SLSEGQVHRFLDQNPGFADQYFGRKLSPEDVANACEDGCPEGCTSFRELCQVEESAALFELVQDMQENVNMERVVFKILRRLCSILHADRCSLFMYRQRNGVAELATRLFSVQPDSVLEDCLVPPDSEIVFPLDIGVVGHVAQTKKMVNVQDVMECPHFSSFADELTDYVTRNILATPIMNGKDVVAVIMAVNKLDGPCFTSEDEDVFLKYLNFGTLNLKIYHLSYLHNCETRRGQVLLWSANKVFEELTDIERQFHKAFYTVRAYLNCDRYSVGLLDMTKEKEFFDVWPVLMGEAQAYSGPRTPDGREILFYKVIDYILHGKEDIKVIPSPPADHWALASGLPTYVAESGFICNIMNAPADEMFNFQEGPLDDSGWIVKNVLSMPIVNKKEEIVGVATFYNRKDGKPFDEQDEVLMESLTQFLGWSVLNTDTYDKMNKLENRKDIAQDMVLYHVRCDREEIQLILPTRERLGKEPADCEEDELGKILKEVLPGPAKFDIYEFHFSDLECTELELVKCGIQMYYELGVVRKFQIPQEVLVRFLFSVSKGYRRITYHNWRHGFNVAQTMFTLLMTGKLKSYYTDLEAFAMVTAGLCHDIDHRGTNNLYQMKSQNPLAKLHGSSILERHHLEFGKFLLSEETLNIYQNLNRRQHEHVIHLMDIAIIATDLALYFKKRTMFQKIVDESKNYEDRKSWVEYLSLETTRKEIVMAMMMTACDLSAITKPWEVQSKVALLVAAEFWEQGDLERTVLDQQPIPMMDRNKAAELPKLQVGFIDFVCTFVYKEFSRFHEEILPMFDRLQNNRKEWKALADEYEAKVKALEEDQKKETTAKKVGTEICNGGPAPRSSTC
The series can be described thus: PDE selectivity assay, bovine PDE6. The format is biochemical. The following applies: PDE Target bovine PDE6.

The next series deals with PDE1C (Homo sapiens, UniProt Q14123). The series can be described thus: IMAP phosphodiesterase assay, PDE1C. The class given is biochemical. Particulars: PDE Target PDE1C.
The next series addresses hPDE7B (Homo sapiens, UniProt Q9NP56). Nature of the series: PDE selectivity assay, hPDE7B. The class given is biochemical. The following applies: PDE Target hPDE7B.
Another series has as its target hPDE8A (Homo sapiens, UniProt O60658). Nature of the series: PDE selectivity assay, hPDE8A. Particulars: PDE Target hPDE8A. The format is biochemical.
In a further series the target is r-bovine PDE5 (Bos taurus, UniProt Q28156). Nature of the series: PDE selectivity assay, r-bovine PDE5. The format is biochemical. The following applies: PDE Target r-bovine PDE5.
Another series has as its target hPDE2A (Homo sapiens, UniProt O00408). Nature of the series: PDE selectivity assay, hPDE2A. Particulars: PDE Target hPDE2A. The format is biochemical.
In a further series the target is hPDE3B (Homo sapiens, UniProt Q13370). Nature of the series: PDE selectivity assay, hPDE3B. The format is biochemical. Particulars: PDE Target hPDE3B.
The nature of series [1]: Circulating metabolites in human plasma after oral administration of Compound 1. The class given is in vivo. The following applies: after oral administration of Compound 1 (parent).

Results on 4 compounds are retold here after patent US12410175B2, “Compounds” (INTRA-CELLULAR THERAPIES, INC., priority 2019, dated 2025).

SMILES strings stand for the structures.

For orientation: IC50 means the concentration that gives 50% inhibition.

Sequence of hPDE2A (O00408 whole entry): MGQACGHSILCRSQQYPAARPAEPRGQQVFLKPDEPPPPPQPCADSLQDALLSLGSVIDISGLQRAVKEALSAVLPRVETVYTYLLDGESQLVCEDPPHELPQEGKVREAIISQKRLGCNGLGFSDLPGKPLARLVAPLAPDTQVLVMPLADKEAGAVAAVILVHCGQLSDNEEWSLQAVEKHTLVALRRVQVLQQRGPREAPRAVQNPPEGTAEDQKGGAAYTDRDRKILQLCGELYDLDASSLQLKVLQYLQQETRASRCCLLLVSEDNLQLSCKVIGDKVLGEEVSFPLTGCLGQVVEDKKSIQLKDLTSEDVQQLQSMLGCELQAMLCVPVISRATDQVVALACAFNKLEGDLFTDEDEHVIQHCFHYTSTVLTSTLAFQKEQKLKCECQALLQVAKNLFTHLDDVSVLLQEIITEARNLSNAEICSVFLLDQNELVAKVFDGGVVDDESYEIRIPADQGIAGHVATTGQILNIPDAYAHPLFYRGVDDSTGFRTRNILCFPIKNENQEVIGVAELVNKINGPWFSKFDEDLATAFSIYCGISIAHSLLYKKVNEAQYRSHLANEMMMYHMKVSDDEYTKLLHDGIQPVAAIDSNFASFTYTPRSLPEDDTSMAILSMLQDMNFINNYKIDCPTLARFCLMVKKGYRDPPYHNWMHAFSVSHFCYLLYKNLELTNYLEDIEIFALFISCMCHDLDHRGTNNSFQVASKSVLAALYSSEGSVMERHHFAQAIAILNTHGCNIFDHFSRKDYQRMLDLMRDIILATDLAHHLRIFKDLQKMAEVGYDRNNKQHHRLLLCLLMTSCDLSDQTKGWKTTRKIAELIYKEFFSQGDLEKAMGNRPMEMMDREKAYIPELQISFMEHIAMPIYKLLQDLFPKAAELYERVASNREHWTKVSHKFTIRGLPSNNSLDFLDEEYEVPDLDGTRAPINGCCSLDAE
Sequence of hPDE8A (O60658 whole entry): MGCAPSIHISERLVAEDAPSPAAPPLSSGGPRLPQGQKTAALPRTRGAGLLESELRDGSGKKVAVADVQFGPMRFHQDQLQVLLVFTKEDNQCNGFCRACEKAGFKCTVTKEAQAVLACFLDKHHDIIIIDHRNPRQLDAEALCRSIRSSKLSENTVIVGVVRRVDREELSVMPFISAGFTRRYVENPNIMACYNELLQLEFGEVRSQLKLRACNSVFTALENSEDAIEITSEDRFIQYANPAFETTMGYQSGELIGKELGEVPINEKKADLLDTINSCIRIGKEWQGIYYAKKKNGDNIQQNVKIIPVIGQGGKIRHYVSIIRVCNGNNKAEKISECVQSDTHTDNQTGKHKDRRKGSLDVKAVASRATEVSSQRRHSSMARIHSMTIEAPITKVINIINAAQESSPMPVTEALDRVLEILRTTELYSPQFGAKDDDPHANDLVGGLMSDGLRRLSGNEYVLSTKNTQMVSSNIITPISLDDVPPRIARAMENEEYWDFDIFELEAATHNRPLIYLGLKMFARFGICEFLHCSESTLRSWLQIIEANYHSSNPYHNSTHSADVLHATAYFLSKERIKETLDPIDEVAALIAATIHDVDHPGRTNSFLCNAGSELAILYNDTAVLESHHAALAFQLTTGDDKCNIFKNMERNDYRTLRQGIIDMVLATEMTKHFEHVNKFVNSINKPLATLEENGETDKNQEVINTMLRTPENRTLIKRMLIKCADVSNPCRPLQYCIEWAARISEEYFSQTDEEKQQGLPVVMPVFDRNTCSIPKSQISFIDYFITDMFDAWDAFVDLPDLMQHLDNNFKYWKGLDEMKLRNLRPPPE

Turning to `CN1C(=O)c2c(nn(Cc3ccc(-c4cccc(F)n4)cc3)c2Nc2ccc(O)cc2)N2C1=N[C@@H]1CCC[C@@H]12` [Compound 1], the IC50 against PDE1B is 29 nM; on PDE1A it was 1.3 nM; against hPDE4A1A, 3660 nM; against hPDE9A it was above 100000 nM; against hPDE11, 5440 nM; at hPDE10A it was above 100000 nM. Also, the IC50 was 4340 nM against bovine PDE6; 1.3 nM against PDE1C; 6610 nM against hPDE7B; 4170 nM at hPDE8A; 2480 nM against r-bovine PDE5; above 100000 nM against hPDE2A. On hPDE3B, this compound gave a half-inhibitory concentration (IC50) of 49700 nM.

Regarding `CN1C(=O)c2c(nn(Cc3ccc(-c4cccc(F)n4)cc3)c2Nc2ccc(O)cc2)N2C1=N[C@]1(O)CCC[C@H]21` [Compound 3], the IC50 at PDE1B is 1.4 nM; at PDE1A, 6.3 nM; against hPDE4A1A it was 840 nM; against hPDE9A, above 100000 nM; on hPDE11 it was 396 nM; at hPDE10A, 67400 nM. Also, the IC50 amounted to 294 nM at bovine PDE6; 5.4 nM at PDE1C; 1240 nM at hPDE7B; 3420 nM against hPDE8A; 156 nM against r-bovine PDE5; 73400 nM at hPDE2A. The compound further returned a half-inhibitory concentration (IC50) at hPDE3B of 20900 nM.

`CN1C(=O)c2c(nn(Cc3ccc(-c4cccc(F)n4)cc3)c2Nc2ccccc2)N2C1=N[C@]1(O)CCC[C@H]21` [Compound 2]: the IC50 at PDE1B was 0.015 nM; on PDE1A, 0.042 nM; at hPDE4A1A, 22 nM; at hPDE9A, above 10000 nM; at hPDE11, 454 nM; on hPDE10A, above 10000 nM. The IC50 against bovine PDE6 is 34 nM; on PDE1C, 0.042 nM; on hPDE7B it was 118 nM; against hPDE8A, 418 nM; at r-bovine PDE5, 3.1 nM; on hPDE2A, around 10000 nM. Also, the IC50 against hPDE3B was around 10000 nM.

For the compound `CN1C(=O)c2c(nn(Cc3ccc(-c4cccc(F)n4)cc3)c2Nc2ccccc2)N2C1=N[C@]1(O)CCC[C@H]21` [M-I], the “share of the total circulating drug related materials in human plasma” value in series [1] stood at 84%.
